Source: US6376540B1, “Furan nitrone compounds” (Centaur Pharmaceuticals, Inc., priority 1996, dated 2002)

Assays:
synthetic Aβ(1-40) = biological target: T1, synthetic Aβ(1-40) (Homo sapiens, UniProt P05067); assay: Inhibition of Aβ(1-40) beta-pleated sheet formation (ThT fluorescence); assay type: biochemical; conditions: 10 μM compound, ThT 3 μM, PBS pH 6.0, 12 hours; read-out: inhibition of Aβ(1-40) beta-pleated sheet formation compared to the controls
T1 construct: 3 μL of Aβ(1-40)(3 μg) prepared with dH2O
T1 sequence (P05067 672-711 limits assumed): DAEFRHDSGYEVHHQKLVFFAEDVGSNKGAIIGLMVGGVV
Description: The deposition of amyloid β-peptide (Aβ) is associated with the development of Alzheimer's disease. See, for example, G. G. Glenner et al. (1984) Biochem. Biophys. Res. Commun., 120:885-890; and R. E. Tanzi (1989) Ann. Med., 21:91-94. Accordingly, compounds which effectively disrupt the formation of Aβ(1-40) or Aβ(1-42) beta-pleated sheets are potentially useful for preventing and/or reversing such amyloid deposits. Thioflavin T (ThT) is known to rapidly associate with beta-pleated sheets, particularly the aggregated fibrils of synthetic Aβ(1-40). This association gives rise to a new excitation maximum at 440 nm and to enhanced emission at 490 nm.
The experiments were performed using a CytoFluor II fluorescence plate reader having the following parameters:
Into each well was aliquoted 95 μl of ThT (3 μM) prepared in PBS (pH 6.0), 2 μL of the compound to be tested (10 μM) prepared with 0.05% of methylcellulose in PBS (pH 6.0), and 3 μL of Aβ(1-40)(3 μg) prepared with dH2O (the compounds prepared in Examples 1, 3, 4, 5, 6, 7, 8, 9, 11 and 12 were tested). The fluorescence measurement began when the Aβ(1-40) was added and continued for a total of 12 hours. The percent inhibition of beta-pleated sheet formation was calculated from the relative fluorescence unit difference between aggregation in the presence and in the absence of the test compounds.

Male Sprague-Dawley rats = assay: Locomotor impairment due to Aβ(25-35), apomorphine-induced circling; assay type: in vivo, rat; conditions: one hour before and three hours post Aβ injection, apomorphine 0.5 mg/kg s.c. one week after
Method: Male Sprague-Dawley rats (250-400 g) were given an ipsilateral injection of 20 μg of Aβ(25-35) into their substantia nigra. Prior to the injection, the rats were fasted overnight and then each received an oral treatment of N-isopropyl-α-(2-sulfofuran-5-yl)nitrone sodium salt (prepared in Example 1 above)(10-100 mg/kg) dissolved in aqueous 1% methyl cellulose or the vehicle alone, one hour before and three hours post the Aβ-peptide stereotaxic injection. One week after treatment, the rats were dosed s.c. with 0.5 mg/kg apomorphine (dissolved in 0.1% vitamin C in isotonic saline) and the circling reflex was monitored using a Rotorat computerized behavioral monitoring apparatus for the time period between 15 and 30 minutes of being placed in the arena. Impairment of the animals due to Aβ-peptide was determined by measuring the number of rotations over the 15 minute period. A higher number of rotations per period indicates more physical impairment.

rats = assay: N-nitro-L-arginine-induced spatial learning deficit; assay type: in vivo, rat; conditions: 10 mg/kg 30 min before each of nine doses of N-nitro-L-arginine (100 mg/kg)
Description: Treatment of rats with N-nitro-L-arginine, a nitric oxide synthase inhibitor, is known to cause a deficit in spatial learning. See, for example, G. A. Bohme et al., (1993) PNAS, 90:9191-9194. Rats treated with N-nitro-L-arginine wander aimlessly throughout their enclosure whereas untreated rats spend most of their time in the quadrant in which they are initially placed and stay away from the open area in the middle of the enclosure. This N-nitro-L-arginine-induced spatial learning deficit is used as a model for learning deficits caused by Alzheimer's disease and other dementias.
In this experiment, 10 mg/kg of N-isopropyl-α-(2-sulfofuran-5-yl)nitrone sodium salt (prepared in Example 1 above) or a control was administered 30 min before each of nine doses of N-nitro-L-arginine (100 mg/kg. iip.). The wanderings of the rats were then monitored. […] In contrast, rats treated with N-nitro-L-arginine and N-isopropyl-α-(2-sulfofuran-5-yl)nitrone sodium salt show a preference for the area of the enclosure into which they were first placed and rarely cross the center of the enclosure as illustrated in FIG. 3C. This behavior is essentially the same as rats treated with a saline control (i.e., without N-nitroL-arginine)(see FIG. 3A).

female Lewis rats = assay: Prevention of weight loss in the EAE model; assay type: in vivo, rat; conditions: 100 mg/kg po once a day, weighed daily
Method: Acclimated female Lewis rats, (Harlan; 200-250 g) were used in this experiment since this strain of rat is genetically highly susceptible to EAE. In the experiment, 100 mg/kg of N-isopropyl-α-(2-sulfofuran-5-yl)nitrone sodium salt (prepared in Example 1 above) or a vehicle alone (control) was administered po once a day from days 4 to 18. On day 1, the rats received an injection of 100 μg of MBP peptide, from guinea pig brain, plus 500 μg of H37RA Mycobacterium in 0.10 ml complete Freund's adjuvant divided equally between the two hind foot-pads.
To determine if the furan nitrones of formula I prevented such weight loss, the animals in the EAE model described in Example 27 above were weighed daily.

## CC(C)[N+]([O-])=Cc1ccc(S(=O)(=O)O)o1 [Example 1, N-Isopropyl-α-(2-sulfofuran-5-yl)nitrone]
Synthetic Aβ(1-40)
  inhibition at 10 µM: 15 to 71%
Male Sprague-Dawley rats; Aβ(25-35) + 10 mg/kg oral
  Rotations Over 15 Minute Period: 9
Male Sprague-Dawley rats; Aβ(25-35) + 100 mg/kg oral
  Rotations Over 15 Minute Period: 6
rats
  spatial learning deficit caused by N-nitro-L-arginine: prevents the spatial learning deficit
Female Lewis rats
  weight change: normal or above normal weight gain
